Where two headings read alike, the source gives them in different places.
Columns and labels:
[1] = test system: SARS-CoV-2; assay: SARS-CoV-2 inhibition, cell viability assay (CellTiter-Glo) in VERO-E6 cells enriched for ACE-2; assay type: cell-based
[2] = test system: SARS-CoV; assay type: cell-based
[3] = test system: macrophages treated with SARS-CoV-2 Spike protein; assay type: cell-based, human; note: test concentration or dose not given here
[4] = test system: macrophages treated with SARS-CoV-2 Spike protein; assay type: cell-based, human; remark: listed apart in the source; note: test concentration or dose not given here
[5] = test system: Influenza B; assay: In vitro activity against Influenza B, methods analogous to Example 1; assay type: cell-based
[6] = test system: MERS-CoV; assay type: cell-based
[7] = test system: common cold coronavirus; assay: In vitro activity against common cold coronaviruses, methods analogous to Example 1; assay type: cell-based
[8] = test system: Influenza A; assay: In vitro activity against Influenza A, methods analogous to Example 1; assay type: cell-based
[9] = test system: VERO-E6 cells enriched for angiotensin converting enzyme 2 receptor (ACE-2); assay: In vitro toxicity, cell viability assay in VERO-E6 cells in the absence of virus; details: Table I, positive controls; absence of SARS-CoV-2 virus
[10] = Severe acute respiratory syndrome coronavirus 2, Vero C1008; Table II, antiviral compounds; VERO-E6 cells enriched for ACE-2 plus SARS-CoV-2; read-out: IC50
[11] = Severe acute respiratory syndrome coronavirus 2, Vero C1008; read-out: IC50 in an in vitro inhibition assay against SARS-CoV-2

| SMILES | IC50 [1, 10] [nM] | IC50 [1, 11] [nM] | activity against SARS-CoV [2] | expression of pro-inflammatory cytokines [3] | pro-inflammatory cytokines [3] | apoptosis by activation of caspase 3 [4] | apoptosis by caspase 3 activation [4] | activity against Influenza B [5] | activity against MERS-CoV [6] | activity against common cold coronavirus [7] | activity against Influenza A [8] | CC50 [9] [nM] | anti-inflammatory cytokines [3] | expression of cytokine modulators / anti-inflammatory cytokines [3] | expression of the anti-inflammatory cytokine IL-10 [3] | multiple pro-inflammatory cytokines [3] | IC50 ([1]; Severe acute respiratory syndrome coronavirus 2, Vero C1008, read-out: IC50 in an in vitro inhibition assay against SARS-CoV-2) [nM] |
| --- | --- | --- | --- | --- | --- | --- | --- | --- | --- | --- | --- | --- | --- | --- | --- | --- | --- |
| COc1ccc2cc1Oc1ccc(cc1)C[C@H]1c3cc(c(OC)cc3CCN1C)Oc1c(O)c(OC)cc3c1[C@H](C2)N(C)CC3 [Fangchinoline, (1S,14S)-9,20,25-trimethoxy-15,30-dimethyl-7,23-dioxa-15,30-diazaheptacyclo[22.6.2.2^3,6.1^8,12.1^14,18.0^27,31.0^22,33]hexatriaconta-3(36),4, 6(35),8,10,12(34),18,20,22(33),24,26,31-dodecaen-21-ol] | 2050 | 2050 | active | inhibited expression of pro-inflammatory cytokines VEGF, IL-8, MIP-1β and MMP-9 | selectively inhibited pro-inflammatory cytokines, such as VEGF, IL-8, GRO, MIP-1β and MMP-9 | selectively induces apoptosis | induced apoptosis | active | active | active | active |  |  |  |  |  |  |
| CCN(CC)CCCC(C)Nc1ccnc2cc(Cl)ccc12 (stereo not shown) [Chloroquine, chloroquine, reference compound] |  |  |  |  |  |  |  |  |  |  |  | > 30000 |  |  |  |  |  |
| O=c1cc(-c2ccccc2)oc2cc(O)c(O)c(O)c12 [baicalein, 5,6,7-trihydroxy-2-phenylchromen-4-one] |  |  |  | inhibited expression of pro-inflammatory cytokines IL-1α, IL-8, GRO, MCP-1, MIP-1α, MIP-1β, MMP-9 and TNF-α | selectively inhibited pro-inflammatory cytokine, such as IL-1α, IL-8, GRO, MCP-1, MIP-1α, MIP-1β, MMP-9 and TNF-α | selectively induces apoptosis | induced apoptosis |  |  |  |  |  | inducing anti-inflammatory cytokines such as IL-10 | activated expression of cytokine modulators IL-10 and IFN-γ |  |  |  |
| COc1ccc2cc1Oc1ccc(cc1)C[C@H]1c3cc(c(OC)cc3CCN1C)Oc1c(OC)c(OC)cc3c1[C@H](C2)N(C)CC3 [Tetrandrine, (1S,14S)-9,20,21,25-tetramethoxy-15,30-dimethyl-7,23-dioxa-15,30-diazaheptacyclo[22.6.2.2^3,6.1^8,12.1^14,18.0^27,31.0^22,33]hexatriaconta-3(36),4,6(35),8,10,12(34),18,20,22(33),24,26,31-dodecaene] |  |  | active | inhibited expression of pro-inflammatory cytokines VEGF, IL-6, IL-8, MIP-1α and MIP-1β | selectively inhibited pro-inflammatory cytokine, such as VEGF, IL-6, IL-8, MIP-1α and MIP-1β | selectively induces apoptosis | induced apoptosis | active | active | active | active |  | inducing anti-inflammatory cytokines, such as IL-10 | activating expression of the anti-inflammatory cytokine IL-10 |  |  |  |
| CC(C)=CCc1cc(C(=O)/C=C/c2ccc(O)cc2)c(O)cc1O [Bavachalcone B] | 1430 | 1430 | active |  |  |  |  | active | active | active | active |  |  |  |  |  |  |
| O=C(/C=C/c1ccccc1)Nc1ccccc1 [cinnamanilide, (E)-N,3-diphenylprop-2-enamide] |  |  |  | inhibited expression of pro-inflammatory cytokines IL-1α, VEGF, IL-6, IL-8, IL-13, GM-CSF, MIP-1α, MIP-1β, MMP-9 and RANTES | selectively inhibited pro-inflammatory cytokine, such as IL-1α, VEGF, IL-6, IL-8, IL-13, GM-CSF, MIP-1α, MIP-1β, MMP-9 and RANTES |  |  |  |  |  |  |  | inducing anti-inflammatory cytokines such as IL-10 | activated expression of cytokine modulator IL-10 |  |  |  |
| COc1ccc2cc1Oc1ccc(cc1)C[C@H]1c3c(cc4c(c3Oc3cc5c(cc3OC)CCN(C)[C@@H]5C2)OCO4)CCN1C [Cepharanthine, (14S,27S)-22,33-dimethoxy-13,28-dimethyl-2,5,7,20-tetraoxa-13,28-diazaoctacyclo[25.6.2.2^16,19.1^3,10.1^21,25.0^4,8.0^31,35.0^14,39]nonatri-aconta-1(33),3(39),4(8),9,16(38),17,19(37),21,23,25(36),31,34-dodecaene] | 510 | 510 | active | inhibited expression of pro-inflammatory cytokines VEGF, IL-6, IL-8, GRO, MIP-1α, MIP-1β and MMP-9 | selectively inhibited pro-inflammatory cytokine, such as VEGF, IL-6, IL-8, GRO, MIP-1α, MIP-1β and MMP-9 | selectively induces apoptosis | induced apoptosis | active | active | active | active |  | inducing anti-inflammatory cytokines such as IL-10 | activating expression of the anti-inflammatory cytokine IL-10 | increasing expression of the anti-inflammatory cytokine IL-10 | suppressed multiple pro-inflammatory cytokines such as IL-1β, TNF-α, IL-6 IL-8, IL-12, MCP-1 and MIP-1α |  |
| CN(C)CCCSc1ccccc1NC(=O)/C=C/c1ccccc1 [Cinanserin, cinanserin] | 13700 | 13700 | active |  |  |  |  | active | active | active | active |  |  |  |  |  |  |
| CCN(CCO)CCCC(C)Nc1ccnc2cc(Cl)ccc12 (stereo not shown) [Hydroxychloroquine, hydroxychloroquine, reference compound] |  |  |  |  |  |  |  |  |  |  |  | > 30000 |  |  |  |  |  |
| O=C(/C=C/c1ccc(O)c(O)c1)O[C@H](Cc1ccc(O)c(O)c1)C(=O)O [Rosmarinic acid] | 890 |  | active |  |  |  |  | active | active | active | active |  |  |  |  |  | 890 |
| CCOC(=O)[C@H]1O[C@@H]1C(=O)N[C@@H](CC(C)C)C(=O)NCCC(C)C [E64d (aloxistatin), aloxistatin, reference compound] |  |  |  |  |  |  |  |  |  |  |  | > 30000 |  |  |  |  |  |
| COc1cc(O)cc(O)c1C(=O)/C=C/c1ccc(O)cc1 [Helichrysetin, (E)-1-(2,4-dihydroxy-6-methoxyphenyl)-3-(4-hydroxyphenyl)prop-2-en-1-one] | 10400 | 10400 | active | inhibited expression of pro-inflammatory cytokines IL-1α, VEGF, IL-1β, IL-4, IL-5, IL-6, IL-8, IL-12p70, IL-13, MCP-1, MIP-1α, MIP-1β, MMP-9 and TNF-α | selectively inhibited pro-inflammatory cytokine, such as IL-1α, VEGF, IL-1β, IL-4, IL-5, IL-6, IL-8, IL-12p70, IL-13, MCP-1, MIP-1α, MIP-1β, MMP-9 and TNF-α | selectively induces apoptosis | not observed to induce apoptosis | active | active | active | active |  | inducing anti-inflammatory cytokines such as IL-10 | activated expression of cytokine modulator IL-10 |  |  |  |
| O=C(O)[C@H]1O[C@@H](Oc2cc3oc(-c4ccccc4)cc(=O)c3c(O)c2O)[C@H](O)[C@@H](O)[C@@H]1O [Baicalin, baicalin] | 5960 | 5960 | active |  |  |  |  | active | active | active | active |  |  |  |  |  |  |
| COc1ccc(-c2coc3cc(O)ccc3c2=O)cc1 [formononetin, 7-hydroxy-3-(4-methoxyphenyl)chromen-4-one] |  |  |  | inhibited expression of pro-inflammatory cytokines VEGF, IL-6, IL-8, GRO, MCP-1, MIP-1α, MIP-1β, MMP-9 and RANTES | selectively inhibited pro-inflammatory cytokine, such as VEGF, IL-6, IL-8, GRO, MCP-1, MIP-1α, MIP-1β, MMP-9 and RANTES | selectively induces apoptosis | induced apoptosis |  |  |  |  |  | inducing anti-inflammatory cytokines, such as IL-10 and IFN-γ | activated expression of cytokine modulators IL-10 and IFN-γ |  |  |  |
| CC(C)=CCc1cc([C@@H]2CCc3ccc(O)cc3O2)c(CC=C(C)C)c(O)c1O [kazinol A, 4-[(2S)-7-hydroxy-3,4-dihydro-2H-chromen-2-yl]-3,6-bis(3-methylbut-2-enyl)benzene-1,2-diol] |  |  |  | inhibited expression of pro-inflammatory cytokines IL-1α, IL-4, IL-8, MIP-1β and MMP-9 | selectively inhibited pro-inflammatory cytokine, such as IL-1α, IL-4, IL-8, MIP-1β and MMP-9 | selectively induces apoptosis | induced apoptosis |  |  |  |  |  | inducing anti-inflammatory cytokines such as IL-10 | activated expression of cytokine modulator IL-10 |  |  |  |

Reference: patent US20230338362A1 (priority 2020, published 2023)
